Assay results taken from a melting point compilation (Tetko et al.).

Work on `NC(=O)c1c[nH]nn1` yielded a melting point of 256 to 258 °C.

`CCOC(=O)c1cc(-c2ccccc2)sc1N` showed a melting point of 118 to 120 °C.

For `CCOC(=O)c1c(C)n(C2CCCC2)c2ccc(O)cc12`, the melting point was 228 to 230 °C.

Compound `O=C(O)CNC(=O)c1ccc(F)c(F)c1` has a melting point of 180 to 182 °C.

For `O=C(O)c1csc(CCc2ccccc2)n1`, the melting point was 132 to 134 °C.

For `CN1CCN(c2ncc(C=O)cn2)CC1`, the melting point was 90 to 92 °C.

With `Cc1cc([N+](=O)[O-])n[nH]1` the melting point was 153 to 155 °C.

`CC(C)(C)C(=O)N1CCOC(C(=O)O)C1` (configuration not stated) gave a melting point of 148 to 150 °C.

For `O=C(O)C=Cc1ccccc1OCC1CCCCC1`, the melting point was 99 to 101 °C.

`CCCS(=O)(=O)Nc1cccc(N)c1C` showed a melting point of 99 to 101 °C.

`NS(=O)(=O)c1c[nH]c(C(=O)O)c1` gave a melting point of 229 to 231 °C.

Work on `CC(Cl)C(=O)Nc1ccccc1Cl` (configuration not stated) yielded a melting point of 63 to 65 °C.

For `Cc1ccc(-n2c(N)nc3cc(C)ccc32)cc1`, the melting point was 162 to 164 °C.

`CCOc1cccc2c1OCC(C(=O)O)=C2` showed a melting point of 219 to 221 °C.

In the case of `Cc1ccc(NS(=O)(=O)c2ccc(C(=O)O)cc2)cc1`, the melting point is reported as 285 to 287 °C.

In the case of `COc1cc(C=O)ccc1OCCC(=O)O`, the melting point is reported as 130 to 132 °C.

Work on `CC1Oc2ccccc2OC1C(=O)O` (configuration not stated) yielded a melting point of 106 to 108 °C.

`Cc1[nH]ncc1Cl` showed a melting point of 64 to 66 °C.

Work on `CC(C)(C)OC(=O)NCCCN` yielded a melting point of 22 to 24 °C.

With `O=C(O)CNC(=O)c1cc2c(s1)CCCC2` the melting point was 177 to 179 °C.

With `Cc1coc(C=CC(=O)O)n1` the melting point was 103 to 105 °C.

`COc1cc(Br)c(C=O)c(OC)c1` showed a melting point of 89 to 91 °C.

`Cc1cc(C(=O)CCl)c(C)n1-c1ncn[nH]1` gave a melting point of 180 to 182 °C.

Compound `CC(C)CC(N)c1nc(-c2nnc[nH]2)no1` (configuration not stated) has a melting point of 203 to 205 °C.

In the case of `NC(=O)C=Cc1cccnc1`, the melting point is reported as 149 to 151 °C.

In the case of `COc1cccc(Cl)c1C(=O)O`, the melting point is reported as 140 to 142 °C.

For `CCN1C(=O)NC(C)C1=O` (configuration not stated), the melting point was 51 to 53 °C.

`CSCCC(NS(=O)(=O)c1ccccc1F)C(=O)O` (configuration not stated) showed a melting point of 104 to 106 °C.

Work on `O=[N+]([O-])c1ccc(S(=O)(=O)Cl)c(F)c1` yielded a melting point of 72 to 74 °C.

`O=C(O)CSCc1cscn1` gave a melting point of 98 to 100 °C.

Compound `O=C(O)c1ccc2c(c1)S(=O)(=O)N(CC1CCCO1)C2=O` (configuration not stated) has a melting point of 159 to 161 °C.

With `O=Cc1cc(Br)ccc1OCc1ccccn1` the melting point was 138 to 140 °C.

In the case of `O=C(Nc1cccnc1)OCC(F)(F)F`, the melting point is reported as 140 to 142 °C.

`Cc1nc2cc(N)ccc2o1` showed a melting point of 72 to 74 °C.

Work on `CS(=O)(=O)N1CCC(=O)CC1` yielded a melting point of 97 to 99 °C.

With `Cc1ccc(NC(=O)CN(C)C(=O)CCl)cc1` the melting point was 145 to 147 °C.

Work on `NNc1nc2cc(F)c(F)cc2[nH]1` yielded a melting point of 221 to 223 °C.

In the case of `COC(=O)C(=O)CC(=O)c1ccc(C)cc1C`, the melting point is reported as 63 to 65 °C.

For `NC(=O)C1CCOC1` (configuration not stated), the melting point was 109 to 111 °C.

`Cc1cccn2cc(CC(N)=S)nc12` showed a melting point of 153 to 155 °C.

`Cc1cc(NC(=O)CCl)n(-c2ccc(F)cc2)n1` gave a melting point of 128 to 130 °C.

Work on `CS(=O)(=O)c1cccc(C(=O)c2ccccc2)c1` yielded a melting point of 86 to 88 °C.

For `O=C(O)c1cnc(Cl)nc1Cl`, the melting point was 96 to 98 °C.

Work on `Cn1c(O)c([N+](=O)[O-])c(=O)c2ccccc21` yielded a melting point of 159 to 161 °C.

For `O=C(O)c1cc(F)c(F)cc1I`, the melting point was 127 to 129 °C.

`O=Cc1c[nH]c2cc(Cl)ccc12` gave a melting point of 209 to 211 °C.

Work on `CN(C)S(=O)(=O)c1ccc2c(c1)CCN2` yielded a melting point of 111 to 113 °C.

With `CC(C)(C)OC(=O)NCC(C)(C)C(=O)O` the melting point was 116 to 118 °C.

Work on `CCS(=O)(=O)c1nc2ccc(N)cc2s1` yielded a melting point of 90 to 92 °C.

For `COC(=O)c1cc2cc(CBr)ccc2o1`, the melting point was 108 to 110 °C.

`O=S(=O)(Cl)c1cc2c(cc1Br)OCCCO2` showed a melting point of 105 to 107 °C.

Compound `Fc1ccc(-c2nnc(S)n2CCN2CCOCC2)cc1` has a melting point of 212 to 214 °C.

For `Cn1nc(SCC(=O)O)c(=O)n(C)c1=O`, the melting point was 185 to 187 °C.

Work on `Nc1cccnc1-n1ccnc1` yielded a melting point of 215 to 217 °C.

For `O=C(CCl)NC12CC3CC(CC(C3)C1)C2`, the melting point was 110 to 112 °C.

With `O=C(O)CNC(=O)Nc1ccc(Br)cc1` the melting point was 192 to 194 °C.

Work on `CC(C)=CCSc1ccccc1C(=O)O` yielded a melting point of 138 to 140 °C.

With `Brc1ccc(NCc2cccnc2)cc1` the melting point was 88 to 90 °C.

Work on `COc1ccc(C(CN)NC(=O)OC(C)(C)C)cc1` (configuration not stated) yielded a melting point of 90 to 92 °C.

`Cc1cccc2sc(NC(=O)OCC(F)(F)F)nc12` showed a melting point of 220 to 222 °C.

Work on `O=C(O)c1ccc(NC2=NS(=O)(=O)c3ccccc32)cc1` yielded a melting point of 369 to 371 °C.

For `Nc1nc(Cl)ccc1Cl`, the melting point was 94 to 96 °C.

With `CCS(=O)(=O)N1CCC(C(=O)O)CC1` the melting point was 143 to 145 °C.

For `Nc1cc(-c2ccccc2)ns1`, the melting point was 159 to 161 °C.

`COc1cc(C(=O)O)cc(OC)c1OC(F)F` gave a melting point of 179 to 181 °C.

Compound `C=CCn1c(=S)sc2c(=O)[nH]cnc21` has a melting point of 216 to 218 °C.

For `Nc1noc(-c2ccc(Cl)cc2)n1`, the melting point was 255 to 257 °C.

`N#C/C(=C/c1c[nH]nc1-c1cccc(Br)c1)C(=O)O` gave a melting point of 258 to 260 °C.

For `CC(=O)c1cccc(S(=O)(=O)NCC(=O)O)c1`, the melting point was 188 to 190 °C.

For `Cc1cc(C(=O)O)c2cnn(C(C)C)c2n1`, the melting point was 172 to 174 °C.

`NC(=O)c1ccc(NC(=O)OCC(F)(F)F)cc1Cl` gave a melting point of 178 to 180 °C.

Work on `Nc1cc(CC2CCCCC2)n[nH]1` yielded a melting point of 72 to 74 °C.

Work on `O=C(O)CNC(=O)c1c(Cl)cccc1[N+](=O)[O-]` yielded a melting point of 186 to 188 °C.

Work on `CC(C)(C)OC(=O)NCCNC(=O)C1CCCNC1` (configuration not stated) yielded a melting point of 130 to 132 °C.

`CCc1cc(=O)[nH]c(-c2ccncc2)n1` gave a melting point of 172 to 174 °C.

For `Cn1cc(C(=O)O)ccc1=O`, the melting point was 236 to 238 °C.

With `c1cncc(CNC2=NCCS2)c1` the melting point was 90 to 92 °C.

`O=C(O)c1cc(/C=C/c2cccnc2)nc2ccc(Br)cc12` gave a melting point of 335 to 337 °C.

In the case of `Cc1cc(C(=O)O)c(C)n1-c1ccc(F)cc1`, the melting point is reported as 232 to 234 °C.

With `CCc1nn2c(=O)cc(CCl)nc2s1` the melting point was 97 to 99 °C.

With `CC(C)N1C(=O)C(=O)c2ccccc21` the melting point was 77 to 79 °C.

In the case of `CC(=O)C(Cc1ccccc1)NC(=O)CCl` (configuration not stated), the melting point is reported as 73 to 75 °C.

For `O=c1c(Cl)c(Cl)cnn1-c1ccc(Cl)cc1`, the melting point was 186 to 188 °C.

`NNC(=O)Nc1ccc2c(c1)OCO2` showed a melting point of 164 to 166 °C.

Compound `O=C(C=NO)Nc1ccc(F)cc1Cl` has a melting point of 145 to 147 °C.

`O=[N+]([O-])c1cc(S(=O)(=O)C(F)(F)F)ccc1Cl` showed a melting point of 57 to 59 °C.

`Nc1cc(-c2ccco2)no1` gave a melting point of 95 to 99 °C.

`Cc1nc(Cl)c2c(-c3ccccc3)c(C)sc2n1` gave a melting point of 60 to 62 °C.

With `O=C(Nc1ccccc1O)C1CC1` the melting point was 136 to 138 °C.

In the case of `O=C(O)c1cc(S(=O)(=O)Cl)c(Cl)cc1F`, the melting point is reported as 144 to 146 °C.

Compound `CN(C)C(=O)COc1ccc(N)cc1` has a melting point of 129 to 131 °C.

Work on `Cc1c(Cl)cc(S(N)(=O)=O)cc1[N+](=O)[O-]` yielded a melting point of 181 to 183 °C.

Compound `O=S(=O)(Cl)CCS(=O)(=O)c1ccc(F)cc1` has a melting point of 145 to 147 °C.

`NC(=O)Cn1cnc(-c2ccccc2)c1N` showed a melting point of 209 to 211 °C.

With `N#Cc1ccc(OCc2ccc(C(=O)O)o2)cc1` the melting point was 203 to 205 °C.

In the case of `Cc1[nH]c2c(Cl)cccc2c1C=O`, the melting point is reported as 229 to 231 °C.

Work on `COC(=O)c1oc2ccccc2c1C` yielded a melting point of 70 to 72 °C.

In the case of `N#Cc1cccc(NC(=O)CSc2ccccc2C(=O)O)c1`, the melting point is reported as 118 to 120 °C.

With `CC(C)C(Br)C(=O)NCc1ccco1` (configuration not stated) the melting point was 91 to 93 °C.

Compound `COc1ccc(CC#N)cc1[N+](=O)[O-]` has a melting point of 84 to 86 °C.

With `O=C(O)COc1cc(C(F)(F)F)cc(C(F)(F)F)c1` the melting point was 102 to 104 °C.

Compound `COC(=O)Nc1ccc(N)cc1F` has a melting point of 72 to 74 °C.
